Patent US20250057790A1, “AN INJECTABLE PHARMACEUTICAL COMPOSITION FOR THE TREATMENT OF RESPIRATORY DISEASES IN ANIMALS” (priority 2021, published 2025)
Converted amounts (≈) assume the structure as drawn.

What was measured:
A. pleuropneumoniae = assay: MIC determination, broth-microdilution (CLSI VET01-A4), field isolates; type: cell-based, Actinobacillus pleuropneumoniae
Experimental: (§1) This study determined the in vitro activity Compound (A), the enantiomer of the compound of Formula (I), against different isolates of Actinobacillus (A.) pleuropneumoniae, Bordetella (B.) bronchiseptica, Mannheimia (M.) haemolytica, Pasteurella (P.) multocida, Histophilus (H.) somni and Glaesserella parasuis collected in different European countries.
(§2) The in vitro activity was determined by measuring the minimum inhibitory concentrations (MIC) according to CLSI document VET01-A4 [1] and by calculating MIC50 and MIC90.
(§3) A total of 193 field isolates were tested: 31 of A. pleuropneumoniae, 20 of B. bronchiseptica, 20 of H. somni, 20 H. parasuis, 55 of M. haemolytica and 47 of P. multocida. All bacteria were isolated from the respiratory tract of cattle and swine suffering from respiratory disease. All isolates were epidemiologically unrelated as specified by the different suppliers. E. coli ATCC 25922 (ID 6105) and M. haemolytica ATCC 33396 (ID 6374) were used as reference strains for testing isolates of B. bronchiseptica, M. haemolytica and P. multocida. A. pleuropneumoniae ATCC 27090 (ID 6314) and H. somni ATCC 700025 (ID 6315) were used as reference strains for the testing isolates of A. pleuropneumoniae, H. somni and Glaesserella parasuis. Additionally, H. parasuis (G. parasuis) ATCC 19417 was included as type strain for growth control.
(§4) • Mueller-Hinton agar (Becton Dickinson, Lot 9224866) • Cation-adjusted Mueller-Hinton broth, (CAVHB, Becton Dickinson, Lot 8190586) • Sheep blood, defibrinated (Thermo Scientific, Lot 37091500) • Chocolate agar, GC II with IsoVitalex™ (Becton Dickinson, Lot 0147695) • GC-agar base (Becton Dickinson, Lot 6082608) • Hemoglobin solution (Becton Dickinson, Lot 7142854) • Vitox (Oxoid, Lot 2344976) • Veterinary fastidious Medium (VFM), prepared according to CLSI document VET01-A4 [1], containing: • CAMHB (Becton Dickinson, Lot 8190586) • Yeast extract (Sigma, Lot BCBS5470V) • Lysed horse blood (Thermo Scientific, Lot 35875000) • Supplement C™ (Becton Dickinson, Lot 8030960) • Deionized water
(§5) The MICs for all isolates except for H. somni and Glaesserella parasuis isolates, were determined by using the broth-microdilution method according to CLSI document VET01-A4 [1]. For isolates of H. somni and Glaesserella parasuis the agar-dilution method with chocolate agar GC II, was used. The test concentration range for all compounds was 16 μg/mL to 0.016 μg/mL.
The MIC results were interpreted according to the CLSI document VET01-S3 [2]. […] All wells containing test item were compared with the growth-control wells. The lowest concentration of compound at which no visible growth (i.e. no turbidity) was detected by the unaided eye was recorded as the MIC. […]

M. haemolytica = assay: as above; type: cell-based, Mannheimia haemolytica
Experimental: as §1, §2, §3, §4, §5
(§6) The MIC results were interpreted according to the CLSI document VET01-S3 [2]. […] All wells containing test item were compared with the growth-control wells. The lowest concentration of compound at which no visible growth (i.e. no turbidity) was detected by the unaided eye was recorded as the MIC. If a “trailing endpoint” occurs, the MIC is defined as the first concentration at which a markedly reduction (about 90%) of the inoculum is observed.
(§7) For isolates tested by the agar-dilution method, results were interpreted according to the CLSI document VET01-S3 [2]. […] The MIC50 and MIC90 represent the concentrations at which a minimum of 50% or 90% of the isolates tested are inhibited.

H. somni = assay: MIC determination, broth microdilution, field isolates; type: cell-based, Histophilus somni
Experimental: as §1, §2, §3, §4
[…] […] The test concentration range for all compounds was 16 μg/mL to 0.016 μg/mL.
as §6
[…] […] The MIC50 and MIC90 represent the concentrations at which a minimum of 50% or 90% of the isolates tested are inhibited.

Glaesserella parasuis = assay: MIC determination, agar-dilution (chocolate agar GC II), field isolates; type: cell-based
Experimental: as §1, §2, §3, §4, §5, §7

[1] = Injection site reactions in cattle; type: in vivo; settings: injectable pharmaceutical compositions
Experimental: Cattle injected with injectable pharmaceutical compositions containing Compound (A) were evaluated for reactions at the injection site. These injection site reactions were compared to the injection site reactions of cattle injected with injectable pharmaceutical compositions containing Compounds (B) and (C). The compounds were formulated as aqueous solution injectable pharmaceutical compositions or as suspension injectable pharmaceutical compositions as indicated below. These formulations were prepared as described in Examples 1 and 2. Compound (A) was formulated as both an aqueous solution using the free base form of the compound and as a suspense using the dihydrochloride salt of the compound. The composition of the aqueous solution injectable pharmaceutical composition was 15% w/v of Compound A, 15% w/v Poloxamer […], 6% w/v Benzyl Alcohol, 7% w/v Citric Acid, and QS Water. The composition of the suspension injectable pharmaceutical composition was 15% w/v Compound A (17.5% w/v HCl salt of Compound A), 0.1% w/v Kolliphor HS 15 and QS Miglyol 812. Compound A was administered to the animals in a dose of 10 mg/kilogram of body weight. Compound (B) was formulated as both an aqueous solution using the free base form of the compound and as a suspense using the dihydrochloride salt of the compound. The composition of the aqueous solution injectable pharmaceutical composition was 15% w/v of Compound B, 15% w/v Poloxamer […], 6% w/v Benzyl Alcohol, 7% w/v Citric Acid, and QS Water. The composition of the suspension injectable pharmaceutical composition was 15% w/v Compound B (17.5% w/v HCl salt of Compound B), 0.1% w/v Kolliphor HS 15 and QS Miglyol 812. Compound A was administered to the animals in a dose of 10 mg/kilogram of body weight. Compound (C) was formulated as both an aqueous solution using the free base form of the compound. The composition of the aqueous solution injectable pharmaceutical composition was 10% w/v of Compound C, 15% w/v Poloxamer […], 6% w/v Benzyl Alcohol, 7% w/v Citric Acid, and QS Water. Compound A was administered to the animals in a dose of 10 mg/kilogram of body weight. Injection sites were examined clinically by a trained person, Size of the swelling is measured with a ruler to the closest 0.5 cm horizontally, vertical and depth. These three measured values were multiplied to an estimation of the volume of the square box surrounding the observed swelling.

[2] = Actinobacillus pleuropneumoniae, 31 isolates, broth microdilution
[3] = Mannheimia haemolytica, 55 isolates, broth microdilution
[4] = Glaesserella parasuis, 20 isolates, agar dilution

Compound: COCCNCc1ccc(C#Cc2ccc(C(=O)N[C@H](C(=O)NO)C(C)(C)N)cc2)cc1 [Compound A]
- MIC50 (A. pleuropneumoniae; [2]): 1 µg/mL (≈ 2.28 µM)
- MIC90 (A. pleuropneumoniae; [2]): 2 µg/mL (≈ 4.56 µM)
- Distribution of MICs: number of isolates with MIC 1 μg/mL (A. pleuropneumoniae; of 31 isolates tested): 22
- Distribution of MICs: number of isolates with MIC 2 μg/mL (A. pleuropneumoniae; of 31 isolates tested): 9
- MIC50 (M. haemolytica; [3]): 0.5 µg/mL (≈ 1.14 µM)
- MIC90 (M. haemolytica; [3]): 0.5 µg/mL (≈ 1.14 µM)
- Distribution of MICs: number of isolates with MIC 0.063 μg/mL (M. haemolytica; of 55 isolates tested): 2
- Distribution of MICs: number of isolates with MIC 0.125 μg/mL (M. haemolytica; of 55 isolates tested): 6
- Distribution of MICs: number of isolates with MIC 0.25 μg/mL (M. haemolytica; of 55 isolates tested): 15
- Distribution of MICs: number of isolates with MIC 0.5 μg/mL (M. haemolytica; of 55 isolates tested): 27
- Distribution of MICs: number of isolates with MIC 1 μg/mL (M. haemolytica; of 55 isolates tested): 5
- MIC50 (H. somni; Histophilus somni, 20 isolates): 0.5 µg/mL (≈ 1.14 µM)
- MIC90 (H. somni; Histophilus somni, 20 isolates): 1 µg/mL (≈ 2.28 µM)
- Distribution of MICs: number of isolates with MIC 0.125 μg/mL (H. somni; of 20 isolates tested): 1
- Distribution of MICs: number of isolates with MIC 0.25 μg/mL (H. somni; of 20 isolates tested): 5
- Distribution of MICs: number of isolates with MIC 0.5 μg/mL (H. somni; of 20 isolates tested): 8
- Distribution of MICs: number of isolates with MIC 1 μg/mL (H. somni; of 20 isolates tested): 5
- Distribution of MICs: number of isolates with MIC 2 μg/mL (H. somni; of 20 isolates tested): 1
- MIC50 (Glaesserella parasuis; [4]): 1 µg/mL (≈ 2.28 µM)
- MIC90 (Glaesserella parasuis; [4]): 2 µg/mL (≈ 4.56 µM)
- Distribution of MICs: number of isolates with MIC 0.5 μg/mL (Glaesserella parasuis; of 20 isolates tested): 2
- Distribution of MICs: number of isolates with MIC 1 μg/mL (Glaesserella parasuis; of 20 isolates tested): 12
- Distribution of MICs: number of isolates with MIC 2 μg/mL (Glaesserella parasuis; of 20 isolates tested): 5
- Distribution of MICs: number of isolates with MIC 4 μg/mL (Glaesserella parasuis; of 20 isolates tested): 1
- Injection site reactions, overall assessment [1]: minor injection reactions which were resolved by Day 6
- Injection site reactions, overall assessment ([1]; listed as Compound (A)): tolerated at the injection site
